Laboratory results: the NIST ThermoML archive (doi:10.1016/j.fluid.2011.04.017)
Numbers after ± are expanded uncertainties.

Details: 101.33 kPa, Liquid, Vibrating tube method

SMILES: CCCCn1cc[n+](C)c1.F[P-](F)(F)(F)(F)F [1-butyl-3-methylimidazolium hexafluorophosphate]
- mass density (298.1 K): 1366.38 ± 1.7 kg/m3

SMILES: CCCCCCCCCn1cc[n+](C)c1.F[P-](F)(F)(F)(F)F [1-nonyl-3-methylimidazolium hexafluorophosphate]
- mass density (293.15 K): 1198.32 ± 0.2 kg/m3
- mass density (298.15 K): 1194.34 ± 0.19 kg/m3
